Results on nine substances are retold here after patent publication US5840867A, “Aptamer analogs specific for biomolecules” (Gilead Sciences, Inc., priority 1994, dated 1998).

Some results are limits rather than exact numbers.

Data set [1] concerns thrombin. Briefly: Steady-state inhibition kinetics by clotting time assay (Ki). It is filed as biochemical. The conditions noted are these: constant thrombin, varying fibrinogen concentration. As to the method: The inhibition constants (Ki s) and mode of inhibition of the aptamer analogs were determined through steady-state inhibition kinetics using a clotting time assay with constant thrombin concentration and varying the fibrinogen concentration in the presence of aptamer, control DNA, or no DNA. […] The data is consistent with a non-competitive mode of inhibition.

Data set [2] concerns thrombin. The data set can be described thus: Clotting time for thrombin-catalyzed conversion of fibrinogen to fibrin. Type of data set: biochemical. The conditions noted are these: 7-mer at 20 μM; thrombin 10 nM; thrombin alone 24 sec. Here is the method:
Clotting time for the thrombin-catalyzed conversion of fibrinogen (2.0 mg/ml in selection buffer) to fibrin at 37° C. was measured using a precision coagulation timer apparatus (Becton-Dickinson, Cat. Nos. 64015, 64019, 64020). Thrombin (10 nM) incubated with fibrinogen alone clotted in 40 sec, thrombin incubated with fibrinogen and P1 nuclease (Boehringer-Mannheim, Indianapolis, Ind.) clotted in 39 sec, thrombin incubated with fibrinogen and aptamer clone #5 (200 nM) clotted in 115 sec, and thrombin incubated with fibrinogen, clone #5 (200 nM) and P1 nuclease clotted in 40 sec. All incubations were carried out at 37° C. using reagents prewarmed to 37° C. Aptamer DNA or, when present, P1 nuclease, was added to the fibrinogen solution prior to addition of thrombin.
Inhibition of thrombin activity was studied using a consensus-related sequence 7-mer, 5' GGTTGGG 3' (SEQ ID NO:15), or a control 7-mer with the same base composition but different sequence (5' GGGGGTT 3' ) (SEQ ID NO:16). Clotting times were measured using the timer apparatus as above. The thrombin clotting time in this experiment was 24 sec using thrombin alone (10 nM), 26 sec with thrombin and the control sequence at 20 μM and 38 sec with thrombin plus the consensus sequence at 20 μM, indicating specificity for thrombin inhibition at the level of the 7-mer.

In another data set the test system is rat blood coagulation. Briefly: APTT test after injection in rats. It is filed as in vivo. The settings on record: 5 minute time point. As to the method:
(§1) Thus, the 15-mer in blood withdrawn from rats 5 minutes post-injection was able to inhibit exogenously added human thrombin. […] The half-life of the 15-mer in rats appears to be about 5 minutes or less.

Data set [3] relates to thrombin. Briefly: Extent of thrombin inhibition with varying DNA concentration. Type of data set: biochemical. The source says:
Independent verification of the Ki for the nonmodified 15-mer was made by determining the extent of thrombin inhibition with varying DNA concentration.

The nature of another data set: Half-life in rats. The conditions noted are these: injected through catheter. Type of data set: in vivo, rat. As to the method:
(§2) A 15-mer single-stranded deoxynucleotide, 5' GGTTGGTGTGGTTGG 3' (SEQ ID NO:19), identified as a consensus sequence from 30 thrombin aptamer clones as described in Example 4 above was used. Young adult rats of mixed gender and strain were used. The animals were anesthetized and a diester of the 15-mer was injected through a catheter in 200 μl volumes (in 20 mM phosphate buffer, pH 7.4, 0.15M NaCl) at two concentrations, so that the final concentration of 15-mer in the blood was about 0.5 and 5.0 μM respectively, although the exact concentration depends on the volume of distribution which is unknown for this oligonucleotide. These values are 10 to 100 times greater than the human in vitro Kd value. No heparin was used for catheterization.
(§3) At 0, 5, 20 and 60 minutes, blood was withdrawn from the animals (approx. 500 μl aliquots) and transferred into tubes containing 0.1 volume citrate buffer and centrifuged. Rat plasma was removed and tested in a thrombin clotting-time assay. Six animals were used at each concentration,and three animals were injected with the control carrier solution containing no 15-mer.
as §1

The subject of another data set is human thrombin. The data set can be described thus: Thrombin clotting-time assay on rat plasma after injection. The conditions noted are these: rats, injected through catheter. Type of data set: in vivo. As to the method: as §2, §3

As usually defined, the Ki is the dissociation constant of the complex between target and ligand, obtained from inhibition or displacement. A higher Ki goes with weaker binding. Take “GGTTGGTGTGGTTGG#G#T (DNA GGTTGGTGTGGTTGGGT; MEA linkages, chemistry not fully specified) [closely related 17-mer thrombin aptamer analog; # indicates a MEA linkage]”: in the data set on thrombin [1], the affinity corresponds to a Ki of 35 nM. Substance GGTTGGTGTGGTT*G*G had a Ki with thrombin [1] of 40 nM. In the case of “GGTTGG(dU)G(dU)GGTTGG (DNA GGTTGGNGNGGTTGG; dU in place of thymine) [15-mer thrombin aptamer analog with uracil (dU) in place of thymine]”, the affinity with thrombin [1] corresponds to a Ki of 15 nM. On the same count and under the same terms, the value for “GG(dU)TGGTGTGG(dU)TGG (DNA GGNTGGTGTGGNTGG) [15-mer thrombin aptamer analog with uracil (dU) in place of thymine]” was 80 nM. In turn, “5' GGGGGTT 3' (chemistry not given here) [reference compound]” registered a Clotting time in the data set on thrombin [2] of 26 s. Broadly, the half-life is the time needed for the level to fall by half in the phase considered. Turning to 5' GGTTGGTGTGGTTGG 3', the APTT test entry in the data set on rat blood coagulation is reported as “inhibited rat blood coagulation”. In the data set with thrombin [1], this substance yielded a Ki of 20 nM. Also, in the data set on thrombin [3], the “concentration giving 50% inhibition of thrombin activity” value is reported as “approximately the same concentration as the derived Ki”. Also, in the data set “Half-life in rats”, the half-life was not above 5 min. Besides, the “clotting time of rat plasma” value with human thrombin (about 0.5 and 5.0 μM in blood, 5 minute time point) is reported as “prolonged clotting time”. Besides, the “activity in clotting-time assay of rat plasma” value in the data set with human thrombin (20 minutes) is given as “Little or no activity”.

Regarding G*G*T*T*G*G*T*G*T*G*G*T*T*G*G, in the data set on thrombin [1], the Ki worked out at 280 nM.

In the data set on thrombin [2], “5' GGTTGGG 3' (chemistry not given here)” displayed a Clotting time of 38 s. In the data set on thrombin [1], “GGTTGGTGTGGTU'GG (DNA GGTTGGTGTGGTNGG; 5-pentynyluracil, further chemistry not given here) [15-mer thrombin aptamer analog; U' indicates 5-pentynyluracil]” returned an inhibition constant Ki of 20 nM.
